# Assay results: patent US9241928B2, “Antimicrobial compounds” (The General Hospital Corporation, priority 2009, dated 2016)
# Test system: MRSA infection in Caenorhabditis elegans
# Experiment: MRSA infection assay in C. elegans (liquid)
# Format: in vivo
# Details: 6.25 and 12.5 μg/ml, 5 days
# Text: To screen/test candidate compounds for their efficacy against Methicillin-resistant Staphylococcus aureus (MRSA) using Caenorhabditis elegans (C. elegans), a liquid high throughput screening assay was developed. In contrast to the Enterococcus faecalis infection assay, where worms are pre-infected with E. faecalis on agar prior to the start of the screening assay and then infected worms are transferred to microtiter plates using the COPAS BioSort robot, the infection of worms with MRSA occurred directly in the liquid medium. This liquid infection protocol with MRSA was developed because the COPAS BioSort, the large particle sorter used to dispense worms into multiwell plates, is a pressurized system that can generate aerosols. Because MRSA is a potentially dangerous pathogen for immune competent individuals, sorting MRSA-infected worms in the COPAS BioSort was deemed to be potentially hazardous.
# The MRSA infection assay was carried out by incubating C. elegans with three MRSA strains (i.e., USA100, USA400 and MW2) in 96 or 384-well microtiter plates and assessing whether worms were live or dead after a 5 day incubation.
# The MRSA infection assay was performed as follows: Worms were grown on agar using non-pathogenic E. coli as a food source until they reached the L4/young adult stage. A small volume of M9 buffer was added to the agar plates to float worms gently off the food source. The worms were then transferred into a large conical tube and washed 2 times by allowing worms to settle, aspirating the supernatant and adding fresh M9 buffer. 15 worms were then transferred using a COPAS BioSort large particle sorter into a 96-well plate containing […] of M9. […] After the worms were stained for 18 hours, images of the plates were acquired in bright field and red fluorescence channels using a Molecular Devices Discovery-1 or ImageXpress automated microscopy system. The total number of worms was counted in the bright field image and the number of dead animals are determined by positive SYTOX staining. […]
smiles,measurement,value
NNc1ccc2c(Cl)cc(Cl)c(O)c2n1 [Compound 11],survival of MRSA-infected worms (FIG. 4),resulted in survival of MRSA-infected worms
